In publication PMC5754216 (ACS infectious diseases, 2016):
Entries after “also recorded” stand apart in the source; their conditions may differ. Where a name gives a salt, the structure may show the parent alone.

How the values were obtained:
HeLa cells = conditions: 10 µM
in vitro = conditions: human
[1] = molecular target: PV RNA-dependent RNA polymerase 3Dpol (Poliovirus type 1, UniProt P03300); format: biochemical
[2] = tested on: WT-PV (wild type PV Mahoney); format: cell-based, poliovirus; conditions: 25 μM, 48 h
Vero cells = assay: Viability of Vero cells; format: cell-based; conditions: 0.1 μM
[3] = tested on: WT-PV (wild type PV Mahoney); assay: microbe, parasite or virus in culture; format: cell-based, poliovirus
[4] = tested on: Sb-Gluc (modified PV expressing Gaussia Luciferase); format: cell-based, poliovirus; conditions: for Ec (%), inhibitory effect on poliovirus replication: 10 µM
Sb-GLuc = format: cell-based, poliovirus
293T cells = assay: Cytotoxicity in 293T cells; format: cell-based; conditions: up to 100 μM
[5] = format: in vivo; conditions: rhesus macaques, pilot PK studies

Chain of PV RNA-dependent RNA polymerase 3Dpol (P03300 1749-2209 limits assumed): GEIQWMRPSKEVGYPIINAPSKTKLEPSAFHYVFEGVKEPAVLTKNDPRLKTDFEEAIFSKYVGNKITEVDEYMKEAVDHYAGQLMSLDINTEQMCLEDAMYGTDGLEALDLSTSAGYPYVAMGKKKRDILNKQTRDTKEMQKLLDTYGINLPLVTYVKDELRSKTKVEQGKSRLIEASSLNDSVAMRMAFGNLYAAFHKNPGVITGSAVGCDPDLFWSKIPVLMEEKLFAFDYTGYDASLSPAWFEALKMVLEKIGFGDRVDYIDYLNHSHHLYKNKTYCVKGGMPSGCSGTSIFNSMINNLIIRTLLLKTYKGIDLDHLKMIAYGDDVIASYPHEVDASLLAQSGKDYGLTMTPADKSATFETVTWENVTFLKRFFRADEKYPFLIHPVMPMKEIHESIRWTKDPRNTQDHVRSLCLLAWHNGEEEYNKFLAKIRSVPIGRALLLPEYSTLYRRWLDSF

Nc1nc(O)c2[nH]nnc2n1 [azaguanine-8]
Vc (%), cell viability rate on HeLa cells (HeLa cells): 47.54%

CCCC1C(=O)N2C(N(C)C)=Nc3ccc(C)cc3N2C1=O (stereo not drawn) [azapropazone]
viability at 10 µM (in vitro): 91.2%

CC(=O)O[C@]1(C(C)=O)CC[C@H]2[C@@H]3C=C(Cl)C4=CC(=O)[C@@H]5C[C@@H]5[C@]4(C)[C@H]3CC[C@@]21C [cyproterone acetate]
viability at 10 µM (in vitro): 75.4%

Nc1ccn([C@@H]2O[C@H](COP(=O)(O)OP(=O)(O)OP(=O)(O)O)[C@@H](O)C2(F)F)c(=O)n1 [dFdC-TP, 2′,2′-difluoro-2′-deoxycytidine triphosphate]
Inhibition of dsRNA elongation [1]: apparent inhibition; also recorded: weak inhibition | Inhibition of dsRNA synthesis or elongation [1]: complete inhibition

CCOc1ccc(Cc2nccc3cc(OCC)c(OCC)cc23)cc1OCC [ethaverine hydrochloride]
viability at 10 µM (in vitro): 88.4%

COc1cc2ncnc(Nc3ccc(F)c(Cl)c3)c2cc1OCCCN1CCOCC1 [gefitinib]
viability at 10 µM (in vitro): 80.1%

Nc1ccn([C@@H]2O[C@H](CO)[C@@H](O)C2(F)F)c(=O)n1 [gemcitabine, 2′,2′-difluoro-2′-deoxycytidine]
viability at 10 µM (in vitro): 87.9% | Protection of HeLa cells from WT-PV (plaque assay) [2]: completely protected | Effect on Vero cells (Vero cells): kills Vero cells | Increase in viral RNA copies of WT-PV [3]: No noticeable increase | inhibition at 2 µM ([3]; Enterovirus C, HeLa, read-out: Inhibition on WT-PV replication): > 90% | IC50 ([4]; read-out: IC50 against Sb-GLuc on the basis of luminescent signal): 2600 nM | Inhibition of Sb-GLuc replication in 293T cells (Sb-GLuc): inhibited Sb-GLuc replication | Cytotoxic effect in 293T cells (293T cells): without cytotoxic effect | Impact on immune cell counts and liver/kidney functions [5]: subtle and reversible impact

CCC(C)n1ncn(-c2ccc(N3CCN(c4ccc(OCC5COC(Cn6cncn6)(c6ccc(Cl)cc6Cl)O5)cc4)CC3)cc2)c1=O (stereo not drawn) [itraconazole]
viability at 10 µM (in vitro): 79.4% | Protection of HeLa cells from WT-PV (plaque assay) [2]: partial protective effect

CC(=O)N1CCN(c2ccc(OCC3COC(Cn4ccnc4)(c4ccc(Cl)cc4Cl)O3)cc2)CC1 (stereo not drawn) [ketoconazole]
viability at 10 µM (in vitro): 103% | Protection of HeLa cells from WT-PV (plaque assay) [2]: partial protective effect

NC[C@H]1O[C@H](O[C@H]2[C@H](O[C@@H]3O[C@H](CO)[C@@H](O)[C@H]3O)[C@@H](O)[C@H](N)C[C@@H]2N)[C@H](N)[C@@H](O)[C@@H]1O.O=S(=O)(O)O [ribostamycin sulfate salt]
Vc (%), cell viability rate on HeLa cells (HeLa cells): 88.8% | Ec (%), inhibitory effect on poliovirus replication [4]: 81.9%

C=C(NC(=O)C(=C)NC(=O)c1csc(C2=N[C@@H]3c4csc(n4)[C@H]4NC(=O)c5csc(n5)[C@H]([C@](C)(O)[C@@H](C)O)NC(=O)[C@H]5CSC(=N5)/C(=C/C)NC(=O)[C@H]([C@@H](C)O)NC(=O)c5csc(n5)[C@]3(CC2)NC(=O)[C@H](C)NC(=O)C(=C)NC(=O)[C@H](C)NC(=O)[C@H]([C@@H](C)CC)N[C@@H]2C=Cc3c([C@H](C)O)cc(nc3[C@H]2O)C(=O)O[C@@H]4C)n1)C(N)=O [thiostrepton]
viability at 10 µM (in vitro): 87.9%

Cl.Cl.OCCN1CCN(CC/C=C2/c3ccccc3Sc3ccc(Cl)cc32)CC1 [zuclopenthixol hydrochloride]
Vc (%), cell viability rate on HeLa cells (HeLa cells): 92.0% | Ec (%), inhibitory effect on poliovirus replication [4]: 81.8%

meclocycline sulfosalicylate
Vc (%), cell viability rate on HeLa cells (HeLa cells): 81.5% | Ec (%), inhibitory effect on poliovirus replication [4]: 82.1%
